# Assay results published in ChEMBL document CHEMBL1201862, “PubChem BioAssay data set” (2004).
# Calls of active or inactive are those of the source.
# How the values were obtained:
# [1] = molecular target: T1, Sentrin-specific protease 7 (Homo sapiens, UniProt Q9BQF6); experiment: inhibition of human SENP7 cleavage activity – biochemical, luminescence, SAR follow-up (AID 504497); assay type: functional
# T1 sequence (Q9BQF6 whole entry): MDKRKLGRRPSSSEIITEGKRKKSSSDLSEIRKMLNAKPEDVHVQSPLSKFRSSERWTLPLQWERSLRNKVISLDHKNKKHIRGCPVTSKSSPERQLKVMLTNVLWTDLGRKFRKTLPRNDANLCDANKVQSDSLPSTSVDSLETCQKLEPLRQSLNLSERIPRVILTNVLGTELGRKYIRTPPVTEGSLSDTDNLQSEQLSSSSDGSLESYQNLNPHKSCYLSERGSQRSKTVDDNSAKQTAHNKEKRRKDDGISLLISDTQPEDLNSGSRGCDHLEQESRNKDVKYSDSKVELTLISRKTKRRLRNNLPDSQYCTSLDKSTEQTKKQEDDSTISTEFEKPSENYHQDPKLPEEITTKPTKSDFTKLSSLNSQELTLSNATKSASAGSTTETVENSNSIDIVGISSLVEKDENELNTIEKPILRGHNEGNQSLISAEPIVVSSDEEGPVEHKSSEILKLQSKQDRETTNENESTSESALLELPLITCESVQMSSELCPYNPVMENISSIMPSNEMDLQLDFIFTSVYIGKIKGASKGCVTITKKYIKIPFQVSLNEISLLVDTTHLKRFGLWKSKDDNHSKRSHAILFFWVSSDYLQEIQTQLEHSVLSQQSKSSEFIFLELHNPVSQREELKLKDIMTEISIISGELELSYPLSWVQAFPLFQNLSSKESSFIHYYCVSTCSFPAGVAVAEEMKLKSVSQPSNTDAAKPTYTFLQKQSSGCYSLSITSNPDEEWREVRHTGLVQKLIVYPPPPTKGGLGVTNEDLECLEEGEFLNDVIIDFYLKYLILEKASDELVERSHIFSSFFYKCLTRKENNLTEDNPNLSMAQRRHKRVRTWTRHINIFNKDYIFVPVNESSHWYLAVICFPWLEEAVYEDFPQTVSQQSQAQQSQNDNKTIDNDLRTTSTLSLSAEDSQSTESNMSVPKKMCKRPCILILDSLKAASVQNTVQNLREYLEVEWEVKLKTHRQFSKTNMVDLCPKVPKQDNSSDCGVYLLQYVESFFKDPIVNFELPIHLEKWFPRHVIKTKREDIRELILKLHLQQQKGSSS
# Caspase-3 = molecular target: T2, Caspase-3 (Homo sapiens, UniProt P42574); experiment: SAR Analysis of small molecule inhibitors of Sentrin-specific proteases (SENPs) using a Caspase-3 Selectivity assay. [Related pubchem assays (depositor defined):AID2540, AID2599, AID434973, AID489001]; assay type: functional
# T2 sequence (P42574 whole entry): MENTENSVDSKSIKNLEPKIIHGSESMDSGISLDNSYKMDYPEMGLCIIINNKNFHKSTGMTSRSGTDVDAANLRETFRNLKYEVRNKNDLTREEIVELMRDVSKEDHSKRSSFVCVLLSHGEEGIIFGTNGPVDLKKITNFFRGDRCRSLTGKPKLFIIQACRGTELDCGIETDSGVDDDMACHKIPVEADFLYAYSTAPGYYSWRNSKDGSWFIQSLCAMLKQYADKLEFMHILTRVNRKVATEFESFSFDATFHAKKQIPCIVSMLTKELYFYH
# [2] = molecular target: T3, Sentrin-specific protease 8 (Homo sapiens, UniProt Q96LD8); experiment: inhibition of human SENP8 cleavage activity – biochemical, luminescence, SAR follow-up (AID 504501); assay type: functional
# T3 sequence (Q96LD8 whole entry): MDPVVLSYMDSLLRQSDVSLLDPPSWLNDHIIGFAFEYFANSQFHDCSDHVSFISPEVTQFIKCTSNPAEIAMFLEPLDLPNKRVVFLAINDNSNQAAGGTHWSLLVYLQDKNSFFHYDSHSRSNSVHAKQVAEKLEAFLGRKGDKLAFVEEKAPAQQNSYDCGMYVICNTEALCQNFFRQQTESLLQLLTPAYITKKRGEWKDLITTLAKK
# [3] = molecular target: T4, Sentrin-specific protease 6 (Homo sapiens, UniProt Q9GZR1); experiment: SAR Analysis of small molecule inhibitors of Sentrin-specific protease 6 (SENP6) using a Luminescent assay. [Related pubchem assays (depositor defined):AID2582, AID2599]; assay type: functional
# T4 sequence (Q9GZR1 whole entry): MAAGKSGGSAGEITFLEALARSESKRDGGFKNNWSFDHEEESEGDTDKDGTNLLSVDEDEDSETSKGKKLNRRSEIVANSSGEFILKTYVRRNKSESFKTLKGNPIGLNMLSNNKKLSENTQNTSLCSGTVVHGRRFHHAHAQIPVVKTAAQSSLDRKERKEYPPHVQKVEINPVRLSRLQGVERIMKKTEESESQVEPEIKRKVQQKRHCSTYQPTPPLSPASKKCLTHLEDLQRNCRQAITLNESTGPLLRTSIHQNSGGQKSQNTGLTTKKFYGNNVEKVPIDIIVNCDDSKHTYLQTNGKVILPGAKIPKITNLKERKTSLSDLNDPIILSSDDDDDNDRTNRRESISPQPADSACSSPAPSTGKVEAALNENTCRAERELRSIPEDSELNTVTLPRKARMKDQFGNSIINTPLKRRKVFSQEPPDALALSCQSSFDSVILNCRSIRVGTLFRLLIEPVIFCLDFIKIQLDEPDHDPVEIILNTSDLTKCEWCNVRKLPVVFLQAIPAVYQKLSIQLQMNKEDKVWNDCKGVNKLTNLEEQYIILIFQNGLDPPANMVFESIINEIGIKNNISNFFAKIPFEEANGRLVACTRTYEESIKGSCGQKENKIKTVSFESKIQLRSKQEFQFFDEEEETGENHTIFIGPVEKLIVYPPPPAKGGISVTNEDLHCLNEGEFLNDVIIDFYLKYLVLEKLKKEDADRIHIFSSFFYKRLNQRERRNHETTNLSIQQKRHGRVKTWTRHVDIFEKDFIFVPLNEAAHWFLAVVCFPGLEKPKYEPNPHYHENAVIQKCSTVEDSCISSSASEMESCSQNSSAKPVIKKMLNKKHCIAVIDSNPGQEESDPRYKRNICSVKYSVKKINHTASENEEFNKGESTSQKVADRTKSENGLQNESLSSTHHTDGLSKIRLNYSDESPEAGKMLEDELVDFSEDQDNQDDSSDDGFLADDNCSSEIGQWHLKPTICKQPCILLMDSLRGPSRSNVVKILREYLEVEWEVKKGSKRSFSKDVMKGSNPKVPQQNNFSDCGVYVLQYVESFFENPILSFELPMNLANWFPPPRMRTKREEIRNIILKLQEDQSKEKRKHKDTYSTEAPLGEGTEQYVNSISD
# [4] = molecular target: Protein disulfide-isomerase (Homo sapiens, UniProt P07237); experiment: inhibition of PDI-driven insulin aggregation – biochemical, turbidity, absorbance, cherry-picked samples, dose response (AID 602350); assay type: functional
# Chain of Protein disulfide-isomerase (P07237 whole entry): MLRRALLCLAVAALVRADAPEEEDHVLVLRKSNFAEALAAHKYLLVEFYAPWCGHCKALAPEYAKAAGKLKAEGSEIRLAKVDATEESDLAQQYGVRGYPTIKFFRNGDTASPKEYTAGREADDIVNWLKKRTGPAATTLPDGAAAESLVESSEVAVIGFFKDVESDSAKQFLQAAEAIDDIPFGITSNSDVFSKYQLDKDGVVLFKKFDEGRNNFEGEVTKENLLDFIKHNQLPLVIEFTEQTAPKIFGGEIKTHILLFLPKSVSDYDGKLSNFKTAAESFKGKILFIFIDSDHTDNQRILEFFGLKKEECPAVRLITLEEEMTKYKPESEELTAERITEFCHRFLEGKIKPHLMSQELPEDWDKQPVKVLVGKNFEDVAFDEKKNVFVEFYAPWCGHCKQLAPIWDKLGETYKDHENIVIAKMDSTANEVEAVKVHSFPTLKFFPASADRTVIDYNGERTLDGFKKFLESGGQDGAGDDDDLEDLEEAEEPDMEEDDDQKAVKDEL
# [5] = molecular target: Cyclin-dependent kinase 5 (Homo sapiens, UniProt Q00535); assay type: functional;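 also: CDK5 measured as one member of a kinase profiling panel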
# [6] = molecular target: Cyclin-dependent kinase 8 (Homo sapiens, UniProt P49336); experiment: Navigating the Kinome. Panel member name: CDK8; assay type: functional
# Chain of Cyclin-dependent kinase 8 (P49336 whole entry): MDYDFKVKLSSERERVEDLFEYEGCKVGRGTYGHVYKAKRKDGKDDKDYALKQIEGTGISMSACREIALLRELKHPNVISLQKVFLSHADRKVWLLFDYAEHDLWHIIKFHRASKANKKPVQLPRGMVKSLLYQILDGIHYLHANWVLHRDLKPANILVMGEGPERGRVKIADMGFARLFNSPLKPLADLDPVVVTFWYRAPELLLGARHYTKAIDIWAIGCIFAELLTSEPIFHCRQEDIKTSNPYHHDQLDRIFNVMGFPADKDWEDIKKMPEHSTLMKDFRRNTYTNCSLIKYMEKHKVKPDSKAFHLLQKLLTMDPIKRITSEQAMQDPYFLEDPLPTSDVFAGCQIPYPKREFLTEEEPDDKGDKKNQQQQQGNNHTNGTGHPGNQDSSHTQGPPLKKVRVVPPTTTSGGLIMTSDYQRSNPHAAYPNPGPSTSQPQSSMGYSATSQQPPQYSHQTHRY
# [7] = molecular target: Neuropeptides B/W receptor type 1 (Homo sapiens, UniProt P48145); experiment: human NPBW1 receptor blockade, IC50 – cell-based, fluorescence, dose response, set 5, late-stage follow-up (AID 588566); assay type: functional
# Chain of Neuropeptides B/W receptor type 1 (P48145 whole entry): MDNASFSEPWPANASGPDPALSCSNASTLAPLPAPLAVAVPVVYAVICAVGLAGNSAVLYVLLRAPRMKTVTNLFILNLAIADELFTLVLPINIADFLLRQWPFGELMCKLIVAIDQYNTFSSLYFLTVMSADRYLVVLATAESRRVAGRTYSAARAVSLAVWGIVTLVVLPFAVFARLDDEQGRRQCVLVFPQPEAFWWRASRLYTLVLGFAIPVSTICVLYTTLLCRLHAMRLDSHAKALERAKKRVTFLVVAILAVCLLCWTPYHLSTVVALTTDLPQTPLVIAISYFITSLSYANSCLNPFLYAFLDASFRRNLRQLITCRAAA
# [8] = molecular target: Melanin-concentrating hormone receptor 1 (Homo sapiens, UniProt Q99705); experiment: Late-stage fluorescence-based counterscreen for antagonists of the G-protein coupled receptor 7 (GPR7): cell-based dose response assay to identify antagonists of the melanin-concentrating hormone receptor 1 (MCHR1) Set 5.; assay type: functional
# Chain of Melanin-concentrating hormone receptor 1 (Q99705 whole entry): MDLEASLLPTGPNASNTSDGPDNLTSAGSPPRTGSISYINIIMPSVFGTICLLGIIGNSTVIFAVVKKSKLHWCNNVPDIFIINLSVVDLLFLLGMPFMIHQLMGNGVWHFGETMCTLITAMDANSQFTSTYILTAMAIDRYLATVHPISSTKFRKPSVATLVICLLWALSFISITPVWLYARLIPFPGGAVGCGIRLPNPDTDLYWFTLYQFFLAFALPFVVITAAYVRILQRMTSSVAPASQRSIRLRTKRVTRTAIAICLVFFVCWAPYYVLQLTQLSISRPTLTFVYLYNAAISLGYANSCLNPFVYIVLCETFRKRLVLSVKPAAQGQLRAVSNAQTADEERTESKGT
# [9] = molecular target: Dual specificity protein kinase CLK4 (Homo sapiens, UniProt Q9HAZ1); assay type: functional
# Chain of Dual specificity protein kinase CLK4 (Q9HAZ1 whole entry): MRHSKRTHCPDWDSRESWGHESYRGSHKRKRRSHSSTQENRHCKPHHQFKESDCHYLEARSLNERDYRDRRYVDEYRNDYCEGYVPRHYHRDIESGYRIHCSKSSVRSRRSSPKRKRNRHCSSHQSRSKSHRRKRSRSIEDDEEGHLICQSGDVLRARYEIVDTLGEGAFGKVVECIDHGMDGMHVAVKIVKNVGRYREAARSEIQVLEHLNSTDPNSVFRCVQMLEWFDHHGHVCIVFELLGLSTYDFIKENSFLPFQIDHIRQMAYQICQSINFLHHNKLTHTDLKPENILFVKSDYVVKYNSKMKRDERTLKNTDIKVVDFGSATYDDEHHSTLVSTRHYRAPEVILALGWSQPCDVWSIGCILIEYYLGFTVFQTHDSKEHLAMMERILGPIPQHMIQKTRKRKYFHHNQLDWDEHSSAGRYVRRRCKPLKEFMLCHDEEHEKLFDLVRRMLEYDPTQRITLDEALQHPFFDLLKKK
# [10] = molecular target: T5, Apoptotic protease-activating factor 1 (Homo sapiens, UniProt O14727); experiment: SAR analysis of small molecule Activators of Apaf-1 in a Fluorescent assay.; assay type: functional; details: read-out: EC50_Mean;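 also: caspase-3 cleavage of fluorogenic Rh110 DEVD substrate downstream of apoptosome activation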
# T5 sequence (O14727 whole entry): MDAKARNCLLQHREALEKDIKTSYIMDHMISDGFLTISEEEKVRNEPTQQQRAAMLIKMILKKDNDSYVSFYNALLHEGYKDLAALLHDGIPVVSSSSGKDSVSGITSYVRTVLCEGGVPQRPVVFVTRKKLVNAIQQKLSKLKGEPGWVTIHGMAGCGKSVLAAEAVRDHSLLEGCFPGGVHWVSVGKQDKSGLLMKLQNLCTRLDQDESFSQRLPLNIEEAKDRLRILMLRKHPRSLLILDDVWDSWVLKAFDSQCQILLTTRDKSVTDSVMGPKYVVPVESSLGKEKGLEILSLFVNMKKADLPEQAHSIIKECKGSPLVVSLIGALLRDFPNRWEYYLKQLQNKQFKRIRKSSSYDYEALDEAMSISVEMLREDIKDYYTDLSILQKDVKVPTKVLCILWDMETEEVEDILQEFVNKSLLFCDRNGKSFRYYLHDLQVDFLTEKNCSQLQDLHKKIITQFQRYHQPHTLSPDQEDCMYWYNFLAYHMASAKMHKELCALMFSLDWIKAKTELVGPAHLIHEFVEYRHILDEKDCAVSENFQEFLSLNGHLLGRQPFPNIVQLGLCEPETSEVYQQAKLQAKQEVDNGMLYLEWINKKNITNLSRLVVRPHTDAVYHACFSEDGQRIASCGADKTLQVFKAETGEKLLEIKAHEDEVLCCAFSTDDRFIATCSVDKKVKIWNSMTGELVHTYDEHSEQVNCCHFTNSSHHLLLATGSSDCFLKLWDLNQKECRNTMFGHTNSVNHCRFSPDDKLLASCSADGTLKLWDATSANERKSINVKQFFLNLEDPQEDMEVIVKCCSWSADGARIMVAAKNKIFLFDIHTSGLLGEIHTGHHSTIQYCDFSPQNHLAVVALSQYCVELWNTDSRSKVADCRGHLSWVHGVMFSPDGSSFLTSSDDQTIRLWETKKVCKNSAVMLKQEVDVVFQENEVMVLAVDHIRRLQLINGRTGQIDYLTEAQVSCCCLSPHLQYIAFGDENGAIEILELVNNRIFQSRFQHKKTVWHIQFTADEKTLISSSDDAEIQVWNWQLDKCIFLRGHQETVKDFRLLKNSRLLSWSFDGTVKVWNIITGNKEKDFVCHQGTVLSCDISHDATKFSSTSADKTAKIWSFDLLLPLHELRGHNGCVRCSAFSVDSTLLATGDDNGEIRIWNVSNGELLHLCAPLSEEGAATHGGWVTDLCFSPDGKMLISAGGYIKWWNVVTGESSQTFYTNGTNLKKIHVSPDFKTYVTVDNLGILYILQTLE
# Prothrombin = Prothrombin (Bos taurus, UniProt P00735); experiment: thrombin protease inhibitors – biochemical, fluorescence polarization, uHTS hits, dose response (AID 602369); assay type: functional
# Streptococcus = experiment: GAS UMAA2166 growth inhibition – luminescence, BacTiterGlo, counter-screen for streptokinase expression inhibitor project, dose response (AID 1915); assay type: functional, organism-based;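 also: potency for reduction of bacterial viability or growth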
# [11] = molecular target: 72 kDa type IV collagenase (Homo sapiens, UniProt P08253); experiment: Dose Response validation of uHTS RPN11 inhibitor hits using a MMP-2 Fluorescence assay.; assay type: functional
# Chain of 72 kDa type IV collagenase (P08253 whole entry): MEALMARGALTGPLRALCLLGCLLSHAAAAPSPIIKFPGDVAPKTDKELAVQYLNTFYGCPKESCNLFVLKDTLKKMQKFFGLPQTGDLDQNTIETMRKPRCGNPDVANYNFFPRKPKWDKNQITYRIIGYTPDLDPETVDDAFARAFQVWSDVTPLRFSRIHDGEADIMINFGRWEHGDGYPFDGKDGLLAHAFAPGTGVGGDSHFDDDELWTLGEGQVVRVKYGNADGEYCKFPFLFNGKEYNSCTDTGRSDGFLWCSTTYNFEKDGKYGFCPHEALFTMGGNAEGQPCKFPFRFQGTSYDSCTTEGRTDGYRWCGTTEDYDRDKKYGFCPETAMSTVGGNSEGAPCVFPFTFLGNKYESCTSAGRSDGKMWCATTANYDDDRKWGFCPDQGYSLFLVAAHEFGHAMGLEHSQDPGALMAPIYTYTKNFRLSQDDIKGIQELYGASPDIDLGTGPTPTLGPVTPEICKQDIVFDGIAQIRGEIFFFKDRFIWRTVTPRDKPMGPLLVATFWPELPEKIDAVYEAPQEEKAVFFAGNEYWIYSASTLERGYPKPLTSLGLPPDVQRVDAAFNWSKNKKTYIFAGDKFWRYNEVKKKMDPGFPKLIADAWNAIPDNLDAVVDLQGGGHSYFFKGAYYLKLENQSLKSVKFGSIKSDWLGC
# [12] = tested on: Streptococcus sp. 'group A'; experiment: Streptococcus pyogenes SK(-)GAS viability under kanamycin – luminescence, BacTiterGlo, confirmation, counter-screen for streptokinase expression inhibitor project, dose response (AID 1900); assay type: functional, organism-based
# [13] = molecular target: 26S proteasome non-ATPase regulatory subunit 14 (Homo sapiens, UniProt O00487); experiment: inhibition of proteasome subunit RPN11 – biochemical, fluorescence polarization, uHTS hits, confirmation (AID 602368); assay type: functional
# Chain of 26S proteasome non-ATPase regulatory subunit 14 (O00487 whole entry): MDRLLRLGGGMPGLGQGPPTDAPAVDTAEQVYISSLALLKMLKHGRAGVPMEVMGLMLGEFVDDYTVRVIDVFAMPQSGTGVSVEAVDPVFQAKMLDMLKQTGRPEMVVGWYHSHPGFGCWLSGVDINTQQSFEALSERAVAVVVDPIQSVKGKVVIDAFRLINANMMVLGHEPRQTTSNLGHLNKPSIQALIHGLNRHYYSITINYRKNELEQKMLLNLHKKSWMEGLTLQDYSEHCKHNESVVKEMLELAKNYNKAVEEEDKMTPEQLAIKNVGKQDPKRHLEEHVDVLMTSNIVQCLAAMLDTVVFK
# Nonstructural protein 1 = Nonstructural protein 1 (Influenza A virus, UniProt Q194T2); assay type: functional, Influenza A virus (A/California/07/2009(H1N1))
# Chain of Nonstructural protein 1 (Q194T2 whole entry): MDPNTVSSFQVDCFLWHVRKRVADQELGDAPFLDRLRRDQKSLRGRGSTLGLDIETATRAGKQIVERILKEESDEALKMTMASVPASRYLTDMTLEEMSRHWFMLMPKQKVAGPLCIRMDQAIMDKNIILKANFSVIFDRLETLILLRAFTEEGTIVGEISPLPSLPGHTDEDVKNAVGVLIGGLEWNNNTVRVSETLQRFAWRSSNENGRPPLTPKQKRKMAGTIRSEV
# [14] = molecular target: Aryl hydrocarbon receptor (Homo sapiens, UniProt P35869); details: Potency;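 also: confirmatory quantitative high-throughput screen measuring activation of the AhR signaling pathway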
# Chain of Aryl hydrocarbon receptor (P35869 whole entry): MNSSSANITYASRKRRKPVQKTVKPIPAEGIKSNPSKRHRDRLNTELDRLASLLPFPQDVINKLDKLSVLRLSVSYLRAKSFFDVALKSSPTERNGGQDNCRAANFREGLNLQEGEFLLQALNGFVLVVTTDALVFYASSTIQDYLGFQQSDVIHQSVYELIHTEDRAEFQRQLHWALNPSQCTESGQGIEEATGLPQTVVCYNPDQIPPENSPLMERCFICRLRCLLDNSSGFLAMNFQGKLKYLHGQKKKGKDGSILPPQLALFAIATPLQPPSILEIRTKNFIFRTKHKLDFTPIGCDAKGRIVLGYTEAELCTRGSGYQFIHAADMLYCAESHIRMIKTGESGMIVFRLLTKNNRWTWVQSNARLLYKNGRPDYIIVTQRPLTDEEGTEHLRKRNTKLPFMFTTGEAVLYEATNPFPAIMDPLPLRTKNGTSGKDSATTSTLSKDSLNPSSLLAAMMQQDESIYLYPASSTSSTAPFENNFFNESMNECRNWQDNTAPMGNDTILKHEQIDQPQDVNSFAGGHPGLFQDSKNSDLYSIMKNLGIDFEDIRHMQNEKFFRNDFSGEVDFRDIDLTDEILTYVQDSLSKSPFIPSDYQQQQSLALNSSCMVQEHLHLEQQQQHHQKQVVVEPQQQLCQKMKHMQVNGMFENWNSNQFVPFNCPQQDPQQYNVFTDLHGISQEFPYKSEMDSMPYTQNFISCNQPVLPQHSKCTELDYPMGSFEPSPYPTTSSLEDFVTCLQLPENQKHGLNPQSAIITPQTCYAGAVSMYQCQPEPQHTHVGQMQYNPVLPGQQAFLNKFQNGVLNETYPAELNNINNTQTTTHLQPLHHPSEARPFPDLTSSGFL
# Cytochrome P450 3A4 = Cytochrome P450 3A4 (Homo sapiens, UniProt P08684); details: Potency;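 also: confirmatory qHTS run detecting inhibitors and substrates of CYP3A4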
# Chain of Cytochrome P450 3A4 (P08684 whole entry, the tested form may be a part): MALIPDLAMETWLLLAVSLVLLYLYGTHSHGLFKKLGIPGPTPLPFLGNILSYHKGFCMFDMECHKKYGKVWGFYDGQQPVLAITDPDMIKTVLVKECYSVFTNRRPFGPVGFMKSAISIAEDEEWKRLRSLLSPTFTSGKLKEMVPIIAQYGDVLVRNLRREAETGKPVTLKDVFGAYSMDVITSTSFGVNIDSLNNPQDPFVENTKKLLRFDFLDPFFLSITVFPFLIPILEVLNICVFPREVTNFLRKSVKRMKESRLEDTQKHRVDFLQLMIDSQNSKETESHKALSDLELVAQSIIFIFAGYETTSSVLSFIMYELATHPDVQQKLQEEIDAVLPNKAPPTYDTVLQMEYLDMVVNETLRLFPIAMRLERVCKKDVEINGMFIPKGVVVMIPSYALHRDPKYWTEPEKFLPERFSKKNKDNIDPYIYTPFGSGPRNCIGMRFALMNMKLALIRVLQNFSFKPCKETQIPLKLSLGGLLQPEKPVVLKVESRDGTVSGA
# [15] = inhibition of ARNT PAS-B/TACC3 complex formation – biochemical, AlphaScreen, cherry-picked samples, confirmation (AID 651703); assay type: functional, Homo sapiens;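 also: His-tagged ARNT PAS-B domain paired with GST-TACC3 E629A dimer coactivator fragment; potency of inhibitors that break up the complex and lower AlphaScreen signal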
structure (smiles),measurement,setting,value
COc1cc2cc(NC(C)=O)cc(NCCCO)c2cc1OC,IC50,[1],29.3 µM (active)
same,IC50,Caspase-3,37.7 µM (active)
same,IC50,[2],56 µM (active)
same,IC50,[3],16.9 µM (active)
C[C@H](CO)N1C[C@H](C)[C@@H](CN(C)Cc2ccc(Oc3ccccc3)cc2)Oc2c(NS(C)(=O)=O)cccc2C1=O,AC50,[4],19.5 µM (active)
C=C1c2ccccc2CC(CCN(C)C)c2ccccc21 (stereo not drawn),Ki,[5],3.16 µM (active)
same,Ki,[6],1.26 µM (active)
N#Cc1ccccc1C(C#N)c1c(Cl)cnn(Cc2cccc3ccccc23)c1=O (stereo not drawn),IC50,[7],0.782 µM (active)
same,IC50,[8],9.7 µM (active)
COc1ccc(CCN(C)C(=O)CCc2ccc(Cl)c(Cl)c2)cc1OC,Ki,[9],2 µM (active)
same,Ki,[6],2.51 µM (active)
O=c1c(Oc2ccc3cc[nH]c3c2)c(Cl)cnn1Cc1cccc2ccccc12,IC50,[7],1.01 µM (active)
same,IC50,[8],18.6 µM (inactive)
CC(Nc1ccccc1)C(=O)O (stereo not drawn),EC50,[10],> 100 µM (inactive)
O=C1NC[C@H](Cc2ccc(O)cc2)N(CC2CCCCC2)C1=O,AC50,[4],19.5 µM (active)
CC(C)CC(=O)Nc1ccc2nc(NC(=O)c3ccccc3)sc2c1,IC50,[1],3.07 µM (active)
same,IC50,Caspase-3,7.24 µM (active)
same,IC50,[2],6.63 µM (active)
same,IC50,[3],6.09 µM (active)
O=[N+]([O-])c1ccc(O)c(/N=C/c2sc3ccccc3c2O)c1,IC50,Prothrombin,2.57 µM (active)
same,EC50,Streptococcus,9.08 µM (active)
same,IC50,[11],> 100 µM (inactive)
same,EC50,[12],5.2 µM (active)
same,IC50,[13],3.28 µM (active)
same,IC50,Nonstructural protein 1,> 100 µM (active)
COc1cccc2sc(N)nc12,AC50,[14],50.1 µM (inconclusive)
same,AC50,Cytochrome P450 3A4,15.8 µM (inconclusive)
Cn1c(-c2ccccc2)cnc1NC(=O)c1cc(-c2ccccc2)on1,AC50,[15],117 µM (active)
